Assay results published in article PMC10331583, “Control of fibrosis with enhanced safety via asymmetric inhibition of prolyl‐tRNA synthetase 1” (EMBO Molecular Medicine, 2023).
Residue numbers refer to the chain shown, from its start. Several values for one entry are separate records, joined by “and”; a condition that tells them apart may be missing. Identical values can stand only once.

Key:
[1] = biological target: T1, PARS1 F1097A/E1123A/R1152L (FA/EA/RL) mutant (Homo sapiens, UniProt P07814, E1123A/F1097A/R1152L); assay: Microscale thermophoresis (MST), PARS1 mutant; assay type: binding; conditions: for Fraction bound: single replicates
T1 construct: His‐PARS1 (1001–1,512 aa); made in house; host or cells: Escherichia coli
T1 sequence (P07814 1001-1512 F1097A/E1123A/R1152L): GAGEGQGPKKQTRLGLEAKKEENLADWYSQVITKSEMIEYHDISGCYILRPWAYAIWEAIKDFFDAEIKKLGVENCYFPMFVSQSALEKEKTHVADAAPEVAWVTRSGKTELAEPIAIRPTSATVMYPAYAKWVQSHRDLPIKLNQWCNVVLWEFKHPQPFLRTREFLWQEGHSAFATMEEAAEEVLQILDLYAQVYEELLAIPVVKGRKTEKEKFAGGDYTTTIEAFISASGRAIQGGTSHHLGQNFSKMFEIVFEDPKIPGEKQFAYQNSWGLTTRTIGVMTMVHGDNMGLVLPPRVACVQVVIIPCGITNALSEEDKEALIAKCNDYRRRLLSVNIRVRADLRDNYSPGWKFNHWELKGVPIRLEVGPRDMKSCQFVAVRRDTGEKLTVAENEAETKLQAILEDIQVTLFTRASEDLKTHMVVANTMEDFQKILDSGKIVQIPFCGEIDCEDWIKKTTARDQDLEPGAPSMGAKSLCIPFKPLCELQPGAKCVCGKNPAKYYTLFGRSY

[2] = tested on: WI‐26 VA4 cells; assay: Immunoblot of cellular protein levels with different proline content; assay type: cell-based, human; conditions: Fig 2A
Description: (§1) The levels of proteins were determined by immunoblot assay. […] The lowest concentration at which protein levels started to decrease was normalized by IC50 values for collagen level and used as the y‐axis value. […] The slope and R^2 value were calculated using GraphPad Prism 7.0. […] The activation of the TGF‐β pathway was determined by monitoring the phosphorylation of SMAD2. Immunoblot images are representative of three biologically independent experiments. • The band intensities of the immunoblot images in (C) were quantified using ImageJ (n = 3; One‐way ANOVA; *P < 0.05, **P < 0.01, ***P < 0.001; mean ± SEM). Source data are available online for this figure.

[3] = tested on: WI‐26 VA4 cells stably expressing EV (empty vector); assay: Collagen ELISA in cells stably expressing EV; conditions: for Collagen level, average: average of 4 experiments; for Collagen level, single replicates: replicates of Experiments #1-#4
[4] = tested on: phosphorylation of SMAD2; assay: Phosphorylation of SMAD2 (TGF‐β pathway), immunoblot; assay type: cell-based, human; conditions: 15 h; for Relative ratio of p-SMAD2/SMAD2, average / Relative ratio of p-SMAD2/SMAD2: + TGF-β; for Relative ratio of p-SMAD2/SMAD2: single experiments
Description: as §1

[5] = biological target: T2, His‐PARS1 (Homo sapiens, UniProt P07814); assay: Surface plasmon resonance (SPR); assay type: binding
T2 construct: His‐PARS1 (1001–1,512 aa); made in house; host or cells: Escherichia coli
T2 sequence (P07814 1001-1512 limits assumed): T1 sequence (P07814 1001-1512 F1097A/E1123A/R1152L) with A97F, A123E, L152R

SMILES: O[C@H]1CCCN[C@@H]1CCCn1cnc2c(Cl)c(Cl)ccc21 [DWN12088]
- Fraction bound, average ([1]; Dose 30.5176 nM): -0.2196
- Fraction bound ([1]; Dose 30.5176 nM): -0.0531 and -0.3613 and -0.2444
- Fraction bound, average ([1]; Dose 61.0352 nM): -0.1437
- Fraction bound ([1]; Dose 61.0352 nM): -0.0707 and -0.1506 and -0.2099
- Fraction bound, average ([1]; Dose 122.07 nM): 0.0563
- Fraction bound ([1]; Dose 122.07 nM): 0.1029 and 0.0530 and 0.0131
- Fraction bound, average ([1]; Dose 244.141 nM): 0.2244
- Fraction bound ([1]; Dose 244.141 nM): 0.3322 and 0.1837 and 0.1572
- Fraction bound, average ([1]; Dose 488.281 nM): -0.0768
- Fraction bound ([1]; Dose 488.281 nM): -0.1204 and -0.1742 and 0.0641
- Fraction bound, average ([1]; Dose 976.562 nM): -0.0355
- Fraction bound ([1]; Dose 976.562 nM): -0.2804 and 0.0014 and 0.1724
- Fraction bound, average ([1]; Dose 1953.12 nM): 0.1140
- Fraction bound ([1]; Dose 1953.12 nM): 0.1616 and 0.0279 and 0.1524
- Fraction bound, average ([1]; Dose 3906.25 nM): 0.1368
- Fraction bound ([1]; Dose 3906.25 nM): 8.74e-5 and 0.2618 and 0.1487
- Fraction bound, average ([1]; Dose 7812.5 nM): -0.0582
- Fraction bound ([1]; Dose 7812.5 nM): -0.2477 and -0.0355 and 0.1087
- Fraction bound, average ([1]; Dose 15625 nM): 0.2874
- Fraction bound ([1]; Dose 15625 nM): 0.1991 and 0.1856 and 0.4774
- Fraction bound, average ([1]; Dose 31250 nM): 0.2894
- Fraction bound ([1]; Dose 31250 nM): 0.2431 and 0.4002 and 0.2248
- Fraction bound, average ([1]; Dose 62500 nM): 0.2591
- Fraction bound ([1]; Dose 62500 nM): 0.5108 and 0.3402 and -0.0738
- Fraction bound, average ([1]; Dose 125000 nM): 0.4857
- Fraction bound ([1]; Dose 125000 nM): 0.4645 and 0.6139 and 0.3786
- Fraction bound, average ([1]; Dose 250000 nM): 0.6790
- Fraction bound ([1]; Dose 250000 nM): 0.6147 and 0.6365 and 0.7858
- Fraction bound, average ([1]; Dose 500000 nM): 0.8538
- Fraction bound ([1]; Dose 500000 nM): 0.9212 and 0.7677 and 0.8725
- Fraction bound, average ([1]; Dose 1000000 nM): 0.8907
- Fraction bound ([1]; Dose 1000000 nM): 0.9649 and 0.9924 and 0.7150
- Kd ([1]; Kd (Fit Results), His-PARS1 FA/EA/RL, doses of the sheet in nM): 114000 nM
- Kd ([1]; Kd, MT (FA/EA/RL), 5 mM ATP, mean ± SD, unit inferred): 114000 ± 57400 nM
- effective dose for decreasing general proteins (SMAD2, AIMP2, AMPKα, cyclin D1) compared with COL1A1 [2]: about 10 times
- CC50/collagen IC50 ([3]; EV cells): 12.55
- Relative (CC50)/(collagen IC50) ([3]; EV cells (reference)): 1.00
- IC50 ([3]; Homo sapiens, WI26VA4, read-out: IC50, collagen level): 1910 nM
- Collagen level, average ([3]; WI-26 VA4 EV, 30 nM): 106.29 % of control
- Collagen level, single replicates ([3]; WI-26 VA4 EV, 30 nM): 103.80 % of control and 93.68 % of control and 118.18 % of control and 101.32 % of control and 113.71 % of control and 100.49 % of control and 110.94 % of control and 125.36 % of control and 99.68 % of control and 91.65 % of control and 118.14 % of control and 98.48 % of control
- Collagen level, average ([3]; WI-26 VA4 EV, 100 nM): 97.93 % of control
- Collagen level, single replicates ([3]; WI-26 VA4 EV, 100 nM): 104.52 % of control and 100.73 % of control and 92.07 % of control and 94.49 % of control and 97.76 % of control and 98.74 % of control and 108.25 % of control and 102.28 % of control and 98.65 % of control and 91.35 % of control and 85.38 % of control and 100.91 % of control
- Collagen level, average ([3]; WI-26 VA4 EV, 300 nM): 81.48 % of control
- Collagen level, single replicates ([3]; WI-26 VA4 EV, 300 nM): 91.09 % of control and 79.16 % of control and 74.69 % of control and 82.43 % of control and 80.75 % of control and 70.25 % of control and 88.16 % of control and 89.14 % of control and 75.64 % of control and 84.11 % of control and 76.95 % of control and 85.36 % of control
- Collagen level, average ([3]; WI-26 VA4 EV, 1000 nM): 68.39 % of control
- Collagen level, single replicates ([3]; WI-26 VA4 EV, 1000 nM): 76.13 % of control and 68.91 % of control and 67.97 % of control and 76.57 % of control and 67.70 % of control and 49.07 % of control and 76.54 % of control and 74.06 % of control and 46.15 % of control and 70.23 % of control and 69.64 % of control and 77.72 % of control
- Collagen level, average ([3]; WI-26 VA4 EV, 3000 nM): 47.79 % of control
- Collagen level, single replicates ([3]; WI-26 VA4 EV, 3000 nM): 46.50 % of control and 50.68 % of control and 52.48 % of control and 46.12 % of control and 48.12 % of control and 44.47 % of control and 46.33 % of control and 45.40 % of control and 47.63 % of control and 51.25 % of control and 49.30 % of control and 45.24 % of control
- Collagen level, average ([3]; WI-26 VA4 EV, 10000 nM): 13.92 % of control
- Collagen level, single replicates ([3]; WI-26 VA4 EV, 10000 nM): 13.28 % of control and 17.27 % of control and 16.23 % of control and 13.89 % of control and 12.05 % of control and 10.58 % of control and 12.31 % of control and 11.80 % of control and 11.03 % of control and 17.85 % of control and 17.12 % of control and 13.65 % of control
- Collagen level, average ([3]; WI-26 VA4 EV, 30000 nM): 4.05 % of control
- Collagen level, single replicates ([3]; WI-26 VA4 EV, 30000 nM): 4.24 % of control and 4.41 % of control and 4.74 % of control and 6.13 % of control and 2.65 % of control and 2.97 % of control and 3.41 % of control and 2.56 % of control and 2.84 % of control and 4.90 % of control and 3.97 % of control and 5.81 % of control
- Collagen level, average ([3]; WI-26 VA4 EV, 100000 nM): 3.50 % of control
- Collagen level, single replicates ([3]; WI-26 VA4 EV, 100000 nM): 2.77 % of control and 4.80 % of control and 4.00 % of control and 3.82 % of control and 3.27 % of control and 2.48 % of control and 2.45 % of control and 2.57 % of control and 2.65 % of control and 4.71 % of control and 3.89 % of control and 4.63 % of control
- Collagen level, average ([3]; WI-26 VA4 EV, 300000 nM): 2.44 % of control
- Collagen level, single replicates ([3]; WI-26 VA4 EV, 300000 nM): 2.49 % of control and 2.31 % of control and 2.89 % of control and 2.54 % of control
- HillSlope, collagen level ([3]; WI-26 VA4 EV, four-parameter fit): -0.8641
- LogIC50, collagen level ([3]; WI-26 VA4 EV, log of concentration in nM, four-parameter fit): 3.281
- Relative ratio of p-SMAD2/SMAD2, average ([4]; 0.2 μM): 0.76
- Relative ratio of p-SMAD2/SMAD2 ([4]; 0.2 μM): 0.61 and 0.94 and 0.72
- Relative ratio of p-SMAD2/SMAD2, average ([4]; 0.6 μM): 0.75
- Relative ratio of p-SMAD2/SMAD2 ([4]; 0.6 μM): 0.65 and 0.71 and 0.87
- Relative ratio of p-SMAD2/SMAD2, average ([4]; 2 μM): 0.70
- Relative ratio of p-SMAD2/SMAD2 ([4]; 2 μM): 0.48 and 0.69 and 0.92
- Relative ratio of p-SMAD2/SMAD2, average ([4]; 6 μM): 0.78
- Relative ratio of p-SMAD2/SMAD2 ([4]; 6 μM): 0.66 and 0.77 and 0.91
- Relative ratio of p-SMAD2/SMAD2, average ([4]; 20 μM): 0.41
- Relative ratio of p-SMAD2/SMAD2, average ([4]; 60 μM): 0.16
- SMAD2 phosphorylation ([4]; TGF‐β 2 ng/ml): reduced SMAD2 phosphorylation
- Kd ([5]; KD, + ATP (1 mM)): 31.1 µM
- Kd ([5]; KD, - ATP): > 300 µM
- Kd ([5]; Kd, SPR, in the presence of ATP): 31 µM
